Data as given in patent publication US20220273659A1, “HETEROCYCLIC COMPOUNDS AS KINASE INHIBITORS” (NUVATION BIO INC., priority 2019, published 2022).
pIC50: −log10 of the molar value.

Tests used:
[1] = biological target: T1, CDK6 (Homo sapiens, UniProt Q00534); assay: In vitro kinase inhibition IC50, luminescence (ADP Glo), retinoblastoma substrate; assay type: biochemical; conditions: read-out: CDK6/D1 IC50
T1 construct: purchased Invitrogen PR8422B
Outline: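 IC50 derived by four-parameter logistic fit of percent inhibition, read as ADP-Glo luminescence. Reactions: 5 nM CDK6, 1 μM retinoblastoma, 25 μM ATP, test compound 0.1–200 nM final, 2 h at room temperature.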

[2] = biological target: T2, CDK4 (Homo sapiens, UniProt P11802); assay: as above; assay type: biochemical; conditions: read-out: CDK4/D1 IC50
T2 construct: purchased Invitrogen PR8064A
T2 sequence (P11802 whole entry): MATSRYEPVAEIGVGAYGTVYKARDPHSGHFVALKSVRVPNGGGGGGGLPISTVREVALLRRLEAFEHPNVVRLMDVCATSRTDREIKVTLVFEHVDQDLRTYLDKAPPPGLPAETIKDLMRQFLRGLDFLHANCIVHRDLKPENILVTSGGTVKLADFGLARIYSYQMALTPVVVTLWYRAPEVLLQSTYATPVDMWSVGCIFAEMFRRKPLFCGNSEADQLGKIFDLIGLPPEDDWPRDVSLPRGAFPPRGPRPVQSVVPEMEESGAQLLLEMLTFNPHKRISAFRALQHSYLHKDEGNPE
T2 sequence (P24385 whole entry partner): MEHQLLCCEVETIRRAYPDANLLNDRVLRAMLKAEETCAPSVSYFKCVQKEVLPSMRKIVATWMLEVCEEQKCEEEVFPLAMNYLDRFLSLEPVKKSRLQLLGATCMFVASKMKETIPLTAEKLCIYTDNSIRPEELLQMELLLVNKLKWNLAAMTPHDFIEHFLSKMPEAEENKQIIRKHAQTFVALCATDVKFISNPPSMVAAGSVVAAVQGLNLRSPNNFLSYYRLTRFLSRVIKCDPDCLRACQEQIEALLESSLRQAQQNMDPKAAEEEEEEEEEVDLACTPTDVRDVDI
Outline: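 Inhibition of CDK4 was quantified by ADP Glo luminescence with retinoblastoma as substrate. Reactions held 5 nM kinase, 1 μM retinoblastoma and 25 μM ATP and ran 2H at room temperature. A Synergy Neo reader took signals 15 min and 45 min after detection reagent, and percent inhibition was fitted to a four-parameter logistic model in XLfit to obtain IC50.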

[3] = system: MCF-7 breast adenocarcinoma cells; assay: Cancer cell proliferation assay, single agent (cell viability); assay type: cell-based; conditions: Homo sapiens, MCF7, Table 4; Rb positive; treatment 144 Hr with medium change at 72 Hr; Cell Titer-Glo or resazurin
Outline: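 Viability read by resazurin or CellTiter-Glo after 24 h treatment (BT-549) or 144 h with a 72 h medium change (MCF-7, DU4475). Compounds tested at 7–9 concentrations, e.g. 1.1 nM–10 μM, added the day after seeding; IC50 by nonlinear sigmoidal regression.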

[4] = biological target: T3, PI3Kδ kinase (Homo sapiens, UniProt O00329); assay: PI3Kδ kinase assay (ADP-Glo, Reaction Biology); assay type: biochemical
T3 construct: purchased Reaction Biology Corporation (assay service)
T3 sequence (O00329 whole entry): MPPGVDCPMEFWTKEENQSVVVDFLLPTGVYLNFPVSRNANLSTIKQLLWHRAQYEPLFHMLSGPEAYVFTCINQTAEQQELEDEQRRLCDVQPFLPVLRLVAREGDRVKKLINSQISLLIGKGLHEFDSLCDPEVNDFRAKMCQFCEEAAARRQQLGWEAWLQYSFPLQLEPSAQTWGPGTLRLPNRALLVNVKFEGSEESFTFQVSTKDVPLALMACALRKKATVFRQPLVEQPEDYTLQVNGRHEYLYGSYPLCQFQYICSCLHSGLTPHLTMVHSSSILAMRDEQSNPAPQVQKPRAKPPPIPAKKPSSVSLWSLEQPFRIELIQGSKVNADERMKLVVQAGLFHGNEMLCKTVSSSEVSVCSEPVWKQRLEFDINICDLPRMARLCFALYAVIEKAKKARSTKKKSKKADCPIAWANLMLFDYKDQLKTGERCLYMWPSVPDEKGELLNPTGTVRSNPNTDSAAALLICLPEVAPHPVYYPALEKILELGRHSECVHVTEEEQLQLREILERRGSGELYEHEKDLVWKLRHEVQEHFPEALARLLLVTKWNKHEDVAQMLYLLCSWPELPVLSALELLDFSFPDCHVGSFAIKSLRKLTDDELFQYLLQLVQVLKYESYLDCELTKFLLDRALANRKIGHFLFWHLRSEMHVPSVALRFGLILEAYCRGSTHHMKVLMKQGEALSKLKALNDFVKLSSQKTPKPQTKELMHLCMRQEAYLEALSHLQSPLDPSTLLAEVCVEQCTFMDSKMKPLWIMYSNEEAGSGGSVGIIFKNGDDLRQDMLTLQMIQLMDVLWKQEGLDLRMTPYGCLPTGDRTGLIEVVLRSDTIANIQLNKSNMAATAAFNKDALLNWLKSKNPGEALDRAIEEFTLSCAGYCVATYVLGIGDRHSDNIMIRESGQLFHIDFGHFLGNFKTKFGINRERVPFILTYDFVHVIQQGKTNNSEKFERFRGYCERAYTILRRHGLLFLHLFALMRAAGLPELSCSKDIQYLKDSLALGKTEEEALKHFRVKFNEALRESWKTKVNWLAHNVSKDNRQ
T3 sequence (P27986 whole entry partner): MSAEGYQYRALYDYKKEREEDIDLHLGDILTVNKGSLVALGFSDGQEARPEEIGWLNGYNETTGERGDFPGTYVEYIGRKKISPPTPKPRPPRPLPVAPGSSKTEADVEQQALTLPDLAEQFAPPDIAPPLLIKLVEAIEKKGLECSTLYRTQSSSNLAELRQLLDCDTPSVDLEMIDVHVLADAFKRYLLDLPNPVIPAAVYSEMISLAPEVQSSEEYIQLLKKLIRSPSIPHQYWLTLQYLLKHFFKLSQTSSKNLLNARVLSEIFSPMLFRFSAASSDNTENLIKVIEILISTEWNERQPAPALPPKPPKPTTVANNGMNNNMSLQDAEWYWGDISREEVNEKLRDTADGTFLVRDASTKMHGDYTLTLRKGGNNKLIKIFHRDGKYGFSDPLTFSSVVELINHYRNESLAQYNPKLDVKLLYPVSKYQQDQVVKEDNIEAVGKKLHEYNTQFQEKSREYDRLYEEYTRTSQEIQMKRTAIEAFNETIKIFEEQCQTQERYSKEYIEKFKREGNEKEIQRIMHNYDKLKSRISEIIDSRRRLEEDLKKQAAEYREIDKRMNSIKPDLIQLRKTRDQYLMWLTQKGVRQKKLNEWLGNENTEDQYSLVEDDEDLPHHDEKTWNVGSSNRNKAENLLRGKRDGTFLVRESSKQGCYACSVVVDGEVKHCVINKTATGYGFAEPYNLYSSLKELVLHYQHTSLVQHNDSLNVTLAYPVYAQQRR
Protocol: IC50 values of compounds against the PI3Kδ kinase were determined by an assay performed by Reaction Biology Corporation (Malvern, Pa.). Briefly, this assay was conducted in buffer (Tris-HCl 40 mM (pH7.5), Orthovanadate 3 mM, MgCl2 20 mM, DTT 2 mM, CHAPS 0.05%, DMSO 1%). PI3Kδ kinase was added to the reaction solution and mixed gently. The test compounds in 100% DMSO (at specific solutions) were mixed with the kinase reaction mixture to achieve the final compounds at pre-defined concentrations (e.g., range −0.5 nM to 100 μM) by Acoustic technology (Echo550; nanoliter range). After incubating for 10 min at room temp, ATP was added into the reaction mixture to initiate the reaction followed by a 30-min incubation at 30° C. After quenching the reaction with ADP-Glo reagent, the plates were incubated for 40 min. The Detection Mixture was added, and the plate was incubated for an additional 30 min. At the end of incubation, luminescence was measured. For data analysis, the luminescence was converted into μM ADP production based on ADP standard curves. The nonlinear regression to obtain the standard curve and IC50 values was performed using GraphPad Prism (GraphPad Software, Inc., San Diego, Calif.).

[5] = biological target: T4, FMS kinase (Homo sapiens, UniProt P07333); assay: LanthaScreen Eu Kinase Binding Assay (ATP, fluorescent-PolyGT substrate); assay type: biochemical
T4 construct: purchased Invitrogen (Life Technologies)
T4 sequence (P07333 20-972): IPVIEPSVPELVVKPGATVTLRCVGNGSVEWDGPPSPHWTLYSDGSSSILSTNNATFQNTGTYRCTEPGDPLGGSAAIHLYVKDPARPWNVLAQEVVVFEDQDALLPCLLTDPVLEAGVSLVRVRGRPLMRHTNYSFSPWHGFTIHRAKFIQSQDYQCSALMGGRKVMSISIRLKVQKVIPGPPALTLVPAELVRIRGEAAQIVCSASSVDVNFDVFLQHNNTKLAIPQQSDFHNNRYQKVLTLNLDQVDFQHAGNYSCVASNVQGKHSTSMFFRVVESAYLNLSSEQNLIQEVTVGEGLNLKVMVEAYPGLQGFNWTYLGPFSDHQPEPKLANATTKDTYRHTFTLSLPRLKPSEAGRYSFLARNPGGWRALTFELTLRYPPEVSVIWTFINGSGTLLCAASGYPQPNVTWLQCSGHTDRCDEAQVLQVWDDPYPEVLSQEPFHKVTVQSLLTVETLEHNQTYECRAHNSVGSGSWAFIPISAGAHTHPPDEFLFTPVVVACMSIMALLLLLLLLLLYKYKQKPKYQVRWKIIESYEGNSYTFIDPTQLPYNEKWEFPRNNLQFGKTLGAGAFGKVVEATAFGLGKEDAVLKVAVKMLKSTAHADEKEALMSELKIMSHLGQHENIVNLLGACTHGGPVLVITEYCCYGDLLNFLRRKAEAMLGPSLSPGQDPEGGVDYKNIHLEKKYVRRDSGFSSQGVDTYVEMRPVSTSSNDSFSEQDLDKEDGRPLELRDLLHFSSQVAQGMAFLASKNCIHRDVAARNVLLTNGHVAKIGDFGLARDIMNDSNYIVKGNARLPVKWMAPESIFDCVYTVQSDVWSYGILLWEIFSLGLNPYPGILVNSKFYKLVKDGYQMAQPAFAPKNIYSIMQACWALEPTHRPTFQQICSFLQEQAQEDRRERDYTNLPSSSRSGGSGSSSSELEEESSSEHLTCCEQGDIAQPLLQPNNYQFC
Protocol: IC50 values of compounds against FMS kinase were determined by LanthaScreen™ Eu Kinase Binding Assay at Invitrogen (Life Technologies Grand Island, N.Y.) where total reaction volume was 10 μL in low-volume 384-well plates (#4511, Corning). Serially diluted compounds (3-fold) were incubated with kinase (1.25 nM) for 10 min, following which a mixture of ATP (10 μM) (#A1852, Sigma, St-Louis, Mo.) and fluorescent-PolyGT substrate (200 nM) (#PV3610, Invitrogen, Life Technologies Grand Island, N.Y.) was added and incubated in dark at room temperature for 1H. After 1H, 10 μL stop solution containing Terbium labeled antibody (4 nM) (#PV3529, Invitrogen, Life Technologies Grand Island, N.Y.) and EDTA (#E5134, Sigma, St-Louis, Mo.) (20 mM) in TR-FRET dilution buffer (#PV3574, Invitrogen, Life Technologies Grand Island, N.Y.) was added. Readings were taken in a Synergy Neo Plate reader (BioTek, Winooski) at single excitation of 340 nm and Dual emission at 495 nm and 520 nm respectively.
The following equations were used for LanthaScreen Eu Kinase Binding Assay Data Analysis. Percent inhibition (100-% activity) was fitted to the “four-parameter logistic model” in XLfit for determination of IC50 values.

T1 sequence (Q00534 whole entry): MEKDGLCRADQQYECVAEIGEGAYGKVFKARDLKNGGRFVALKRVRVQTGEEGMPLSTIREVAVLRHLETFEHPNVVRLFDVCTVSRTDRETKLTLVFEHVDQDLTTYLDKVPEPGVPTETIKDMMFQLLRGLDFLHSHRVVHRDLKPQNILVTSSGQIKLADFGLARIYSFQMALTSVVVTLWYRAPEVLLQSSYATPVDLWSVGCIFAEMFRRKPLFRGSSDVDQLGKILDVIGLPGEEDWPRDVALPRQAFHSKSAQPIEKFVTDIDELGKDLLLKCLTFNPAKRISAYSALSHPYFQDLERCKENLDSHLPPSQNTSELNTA
T1 sequence (P24385 whole entry partner): as the sequence (P24385 whole entry partner) above

| Structure (SMILES) | pIC50 [1] | pIC50 [2] | pIC50 [3] | pIC50 [4] | pIC50 [5] |
| --- | --- | --- | --- | --- | --- |
| CN1CCN(c2ccc(Nc3ncc4cc(C#N)c(=O)n(Cc5ccccc5)c4n3)cc2)CC1 [Compound No. 32, 8-benzyl-2-((4-(4-methylpiperazin-1-yl)phenyl)amino)-7-oxo-7,8-dihydropyrido[2,3-d]pyrimidine-6-carbonitrile] | 8.15 | 9.00 | 5.70 | 6.60 | 8.46 |
| N#Cc1cc2cnc(Nc3cccc(S(N)(=O)=O)c3)nc2n(C2CCCC2)c1=O [Compound No. 3, 3-((6-cyano-8-cyclopentyl-7-oxo-7,8-dihydropyrido[2,3-d]pyrimidin-2-yl)amino)benzenesulfonamide] | 7.85 | 7.92 | – | 6.89 | 7.46 |
| N#Cc1cc2cnc(Nc3ccc(N4CCNCC4=O)cc3)nc2n(C2CCCC2)c1=O [Compound No. 12, 8-cyclopentyl-7-oxo-2-((4-(2-oxopiperazin-1-yl)phenyl)amino)-7,8-dihydropyrido[2,3-d]pyrimidine-6-carbonitrile] | – | – | 5.60 | 5.88 | 9.40 |
| CN(C)Cc1c[nH]c2cc(Nc3ncc4cc(C#N)c(=O)n(C5CCCC5)c4n3)ccc12 [Compound No. 21, 8-cyclopentyl-2-((3-((dimethylamino)methyl)-1H-indol-6-yl)amino)-7-oxo-7,8-dihydropyrido[2,3-d]pyrimidine-6-carbonitrile] | 8.70 | 7.96 | 6.62 | 6.00 | 8.60 |
| CC(c1ccccc1)n1c(=O)c(C#N)cc2cnc(Nc3ccc(N4CCN(C)CC4)cc3)nc21 (stereo not drawn) [Compound No. 35, 2-((4-(4-methylpiperazin-1-yl)phenyl)amino)-7-oxo-8-(1-phenylethyl)-7,8-dihydropyrido[2,3-d]pyrimidine-6-carbonitrile] | 7.04 | < 6.70 | 5.41 | 6.13 | 8.15 |
| N#Cc1cc2cnc(Nc3cccc(C(N)=O)c3)nc2n(C2CCCC2)c1=O [Compound No. 5, 3-((6-cyano-8-cyclopentyl-7-oxo-7,8-dihydropyrido[2,3-d]pyrimidin-2-yl)amino)benzamide] | 7.32 | 6.67 | – | 6.35 | 9.00 |
| CN1CCN(CCCn2cc(Nc3ncc4cc(C#N)c(=O)n(C5CCCC5)c4n3)cn2)CC1 [Compound 56] | – | < 6.70 | – | < 4.52 | < 5.30 |
| CN1CCN(c2ccc(Nc3ncc4cc(C#N)c(=O)n(C5CCCC5)c4n3)cc2F)CC1 [Compound No. 36, 8-cyclopentyl-2-((3-fluoro-4-(4-methylpiperazin-1-yl)phenyl)amino)-7-oxo-7,8-dihydropyrido[2,3-d]pyrimidine-6-carbonitrile] | 9.00 | 9.00 | 6.50 | 5.99 | 8.19 |
| C[C@H]1CC[C@H](n2c(=O)c(C#N)cc3cnc(Nc4cccc(S(N)(=O)=O)c4)nc32)CC1 [Compound No. 2, 3-((6-cyano-8-((1r,4r)-4-methylcyclohexyl)-7-oxo-7,8-dihydropyrido[2,3-d]pyrimidin-2-yl)amino)benzenesulfonamide] | – | – | – | 6.89 | 6.74 |
| CN1CCN(c2ccc(Nc3ncc4cc(C#N)c(=O)n([C@H]5CC[C@H](C)CC5)c4n3)cc2)CC1 [Compound No. 1, 8-((1r,4r)-4-methylcyclohexyl)-2-((4-(4-methylpiperazin-1-yl)phenyl)amino)-7-oxo-7,8-dihydropyrido[2,3-d]pyrimidine-6-carbonitrile] | 9.00 | 8.70 | 5.09 | 6.41 | > 6.52 |
| CN(C)CCNC(=O)c1cccc(Nc2ncc3cc(C#N)c(=O)n(C4CCCC4)c3n2)c1 [Compound No. 11, 3-((6-cyano-8-cyclopentyl-7-oxo-7,8-dihydropyrido[2,3-d]pyrimidin-2-yl)amino)-N-(2-(dimethylamino)ethyl)benzamide] | – | – | – | 5.99 | 8.62 |
| CN1CCN(C(=O)Cn2cc(Nc3ncc4cc(C#N)c(=O)n(C5CCCC5)c4n3)cn2)CC1 [Compound 58] | – | < 6.70 | – | < 4.52 | 5.34 |

Further lines, results first:

| pIC50 [1] | pIC50 [2] | pIC50 [3] | pIC50 [4] | pIC50 [5] | Structure (SMILES) |
| --- | --- | --- | --- | --- | --- |
| 9.00 | 8.82 | 6.34 | 6.42 | 8.26 | CN1CCc2cc(Nc3ncc4cc(C#N)c(=O)n(C5CCCC5)c4n3)ccc2C1 [Compound No. 38, 8-cyclopentyl-2-((2-methyl-1,2,3,4-tetrahydroisoquinolin-6-yl)amino)-7-oxo-7,8-dihydropyrido[2,3-d]pyrimidine-6-carbonitrile] |
| 8.40 | 8.04 | 5.35 | 8.37 | 9.00 | N#Cc1cc2cnc(Nc3ccc(N4CCC(O)CC4)c(F)c3)nc2n(C2CCCC2)c1=O [Compound No. 49, 8-cyclopentyl-2-((3-fluoro-4-(4-hydroxypiperidin-1-yl)phenyl)amino)-7-oxo-7,8-dihydropyrido[2,3-d]pyrimidine-6-carbonitrile] |
| 7.92 | 7.24 | 6.15 | 6.19 | 8.40 | N#Cc1cc2cnc(Nc3ccc(N4CCNCC4)cc3)nc2n(C2CCc3ccccc32)c1=O (stereo not drawn) [Compound No. 42, 8-(2,3-dihydro-1H-inden-1-yl)-7-oxo-2-((4-(piperazin-1-yl)phenyl)amino)-7,8-dihydropyrido[2,3-d]pyrimidine-6-carbonitrile] |
| 8.30 | 7.82 | 6.56 | 6.18 | 8.60 | CN1CCC(c2ccc(Nc3ncc4cc(C#N)c(=O)n(C5CCCC5)c4n3)cc2F)CC1 [Compound No. 46, 8-cyclopentyl-2-((3-fluoro-4-(1-methylpiperidin-4-yl)phenyl)amino)-7-oxo-7,8-dihydropyrido[2,3-d]pyrimidine-6-carbonitrile] |
| 9.00 | 8.70 | 7.02 | 7.02 | 8.60 | CN(C)C1CCN(c2ccc(Nc3ncc4cc(C#N)c(=O)n(C5CCCC5)c4n3)cc2F)CC1 [Compound No. 44, 8-cyclopentyl-2-((4-(4-(dimethylamino)piperidin-1-yl)-3-fluorophenyl)amino)-7-oxo-7,8-dihydropyrido[2,3-d]pyrimidine-6-carbonitrile] |
| 8.05 | 8.19 | 6.50 | 5.91 | 8.28 | CN1CCc2ccc(Nc3ncc4cc(C#N)c(=O)n(C5CCCC5)c4n3)cc2C1 [Compound No. 34, 8-cyclopentyl-2-((2-methyl-1,2,3,4-tetrahydroisoquinolin-7-yl)amino)-7-oxo-7,8-dihydropyrido[2,3-d]pyrimidine-6-carbonitrile] |
| 9.00 | 8.26 | 6.79 | 6.39 | > 9.00 | CCN(CC)CCOc1ccc(Nc2ncc3cc(C#N)c(=O)n(C4CCCC4)c3n2)cc1 [Compound No. 41, 8-cyclopentyl-2-((4-(2-(diethylamino)ethoxy)phenyl)amino)-7-oxo-7,8-dihydropyrido[2,3-d]pyrimidine-6-carbonitrile] |
